≈ marks a conversion by molar mass, not a printed value. Calls of active or inactive are those of the source. The rule behind the calls is not given here.
Assays:
[1] = system: Staphylococcus aureus; assay: Antimicrobial activity against Staphylococcus aureus ATCC 29213 by broth dilution method; format: functional
[2] = system: Pseudomonas aeruginosa; assay: Antimicrobial activity against Pseudomonas aeruginosa ATCC 27853 by broth dilution method; format: functional
[3] = system: Escherichia coli; assay: Antimicrobial activity against Escherichia coli ATCC 11229 by broth dilution method; format: functional
[4] = system: Staphylococcus epidermidis; assay: Antimicrobial activity against Staphylococcus epidermidis ATCC 12228 by broth dilution method; format: functional
[5] = system: Staphylococcus aureus; assay: Bacteriostatic activity against Staphylococcus aureus ATCC 29213 after 24 hrs; format: functional, organism-based
[6] = system: Staphylococcus epidermidis; assay: Bactericidal activity against Staphylococcus epidermidis ATCC 12228 after 24 hrs; format: functional; settings: ATCC 12228, 24 h
[7] = system: Candida tropicalis; assay: Antifungal activity against Candida tropicalis ATCC 750 by broth microdilution method; format: functional
[8] = system: Nakaseomyces glabratus; assay: Antifungal activity against Candida glabrata ATCC 90030 by broth microdilution method; format: functional
[9] = system: Escherichia coli; assay: Bactericidal activity against Escherichia coli ATCC 11229 after 24 hrs; format: functional; settings: ATCC 11229, 24 h
[10] = system: Candida parapsilosis; assay: Antifungal activity against Candida parapsilosis ATCC 22019 by broth microdilution method; format: functional; settings: Lodderomyces parapsilosis
[11] = system: Candida albicans; assay: Antifungal activity against Candida albicans ATCC 18804 by broth microdilution method; format: functional
[12] = system: Pseudomonas aeruginosa; assay: Bactericidal activity against Pseudomonas aeruginosa ATCC 27853 after 24 hrs; format: functional; settings: ATCC 27853, 24 h
[13] = system: Staphylococcus aureus; assay: Bactericidal activity against methicillin-resistant Staphylococcus aureus clinical isolate after 24 hrs; format: functional
[14] = system: Staphylococcus aureus; assay: Bactericidal activity against methicillin-resistant Staphylococcus aureus clinical isolate 15 after 24 hrs; format: functional; settings: isolate 15, 24 h
[15] = system: Staphylococcus aureus; assay: Bactericidal activity against methicillin-resistant Staphylococcus aureus clinical isolate 18 after 24 hrs; format: functional; settings: isolate 18, 24 h
[16] = system: Staphylococcus aureus; assay: Bactericidal activity against methicillin-resistant Staphylococcus aureus clinical isolate 4 after 24 hrs; format: functional; settings: isolate 4, 24 h
[17] = system: Staphylococcus aureus; assay: Bactericidal activity against methicillin-resistant Staphylococcus aureus clinical isolate 19 after 24 hrs; format: functional; settings: isolate 19, 24 h
[18] = system: Staphylococcus aureus; assay: Bactericidal activity against methicillin-resistant Staphylococcus aureus clinical isolate 20 after 24 hrs; format: functional; settings: isolate 20, 24 h
[19] = system: Staphylococcus aureus; assay: Bactericidal activity against methicillin-resistant Staphylococcus aureus clinical isolate 14 after 24 hrs; format: functional; settings: isolate 14, 24 h
[20] = system: Staphylococcus aureus; assay: Bactericidal activity against methicillin-resistant Staphylococcus aureus clinical isolate 8 after 24 hrs; format: functional; settings: isolate 8, 24 h
[21] = system: Staphylococcus aureus; assay: Bactericidal activity against methicillin-resistant Staphylococcus aureus clinical isolate 10 after 24 hrs; format: functional; settings: isolate 10, 24 h
[22] = system: Staphylococcus aureus; assay: Bactericidal activity against methicillin-resistant Staphylococcus aureus clinical isolate 11 after 24 hrs; format: functional; settings: isolate 11, 24 h
[23] = system: Staphylococcus aureus; assay: Bactericidal activity against Staphylococcus aureus ATCC 29213 after 24 hrs; format: functional; settings: ATCC 29213, 24 h
[24] = system: Staphylococcus aureus; assay: Bactericidal activity against methicillin-resistant Staphylococcus aureus clinical isolate 2 after 24 hrs; format: functional; settings: isolate 2, 24 h
[25] = system: Staphylococcus aureus; assay: Bactericidal activity against methicillin-resistant Staphylococcus aureus clinical isolate 21 after 24 hrs; format: functional; settings: isolate 21, 24 h
[26] = system: Staphylococcus aureus; assay: Bactericidal activity against methicillin-resistant Staphylococcus aureus clinical isolate 1 after 24 hrs; format: functional; settings: isolate 1, 24 h
[27] = system: Staphylococcus aureus; assay: Bactericidal activity against methicillin-resistant Staphylococcus aureus clinical isolate 17 after 24 hrs; format: functional; settings: isolate 17, 24 h
[28] = system: Staphylococcus aureus; assay: Bactericidal activity against methicillin-resistant Staphylococcus aureus clinical isolate 5 after 24 hrs; format: functional; settings: isolate 5, 24 h
[29] = system: Staphylococcus aureus; assay: Bactericidal activity against methicillin-resistant Staphylococcus aureus clinical isolate 6 after 24 hrs; format: functional; settings: isolate 6, 24 h
[30] = system: Staphylococcus aureus; assay: Bactericidal activity against methicillin-resistant Staphylococcus aureus clinical isolate 16 after 24 hrs; format: functional; settings: isolate 16, 24 h
[31] = system: Staphylococcus aureus; assay: Bactericidal activity against methicillin-resistant Staphylococcus aureus clinical isolate 12 after 24 hrs; format: functional; settings: isolate 12, 24 h
[32] = system: Staphylococcus aureus; assay: Bactericidal activity against methicillin-resistant Staphylococcus aureus clinical isolate 13 after 24 hrs; format: functional; settings: isolate 13, 24 h
[33] = system: Staphylococcus aureus; assay: Bactericidal activity against methicillin-resistant Staphylococcus aureus clinical isolate 7 after 24 hrs; format: functional; settings: isolate 7, 24 h
[34] = system: Staphylococcus aureus; assay: Bactericidal activity against methicillin-resistant Staphylococcus aureus clinical isolate 9 after 24 hrs; format: functional; settings: isolate 9, 24 h
[35] = system: Staphylococcus aureus; assay: Bactericidal activity against methicillin-resistant Staphylococcus aureus clinical isolate 3 after 24 hrs; format: functional; settings: isolate 3, 24 h
[36] = system: Escherichia coli; assay: Bacteriostatic activity against Escherichia coli ATCC 11229 after 24 hrs; format: functional, organism-based
[37] = system: Staphylococcus epidermidis; assay: Bacteriostatic activity against Staphylococcus epidermidis ATCC 12228 after 24 hrs; format: functional, organism-based
[38] = system: Pseudomonas aeruginosa; assay: Bacteriostatic activity against Pseudomonas aeruginosa ATCC 27853 after 24 hrs; format: functional, organism-based

MIC [1]	MIC [2]	MIC [3]	MIC [4]	MIC [7]	MIC [8]	MIC [10]	MIC [11]	Compound	MBC [6]	MBC [9]	MBC [12]	MIC90 [13]	MBC [14]	MBC [15]	MBC [16]	MBC [17]	MBC [18]	MBC [19]	MBC [20]	MBC [23]	also measured
256 µg/mL (≈ 998 µM)	64 µg/mL (≈ 250 µM)	128 µg/mL (≈ 499 µM)	32 µg/mL (≈ 125 µM)	128 µg/mL (≈ 499 µM)	32 µg/mL (≈ 125 µM)	64 µg/mL (≈ 250 µM)	256 µg/mL (≈ 998 µM)	CCCCCCCCCCCC(=O)NCCCN	32 µg/mL (≈ 125 µM)	512 µg/mL (≈ 2000 µM)	256 µg/mL (≈ 998 µM)										Activity [5]: Active
64 µg/mL (≈ 237 µM)	32 µg/mL (≈ 118 µM)	64 µg/mL (≈ 237 µM)	16 µg/mL (≈ 59.2 µM)	128 µg/mL (≈ 473 µM)	1020 µg/mL (≈ 3790 µM)	256 µg/mL (≈ 947 µM)	256 µg/mL (≈ 947 µM)	CCCCCCCCCCCC(=O)NCCCCN	16 µg/mL (≈ 59.2 µM)	64 µg/mL (≈ 237 µM)	32 µg/mL (≈ 118 µM)									512 µg/mL (≈ 1890 µM)	
> 1020 µg/mL	> 1020 µg/mL	> 1020 µg/mL	8 µg/mL (≈ 24.6 µM)	128 µg/mL (≈ 394 µM)	64 µg/mL (≈ 197 µM)	128 µg/mL (≈ 394 µM)	128 µg/mL (≈ 394 µM)	CCCCCCCC/C=C\CCCCCCCC(=O)NCCN													Activity [37]: Active
16 µg/mL (≈ 53.6 µM)	1020 µg/mL (≈ 3430 µM)	256 µg/mL (≈ 858 µM)	16 µg/mL (≈ 53.6 µM)	64 µg/mL (≈ 214 µM)	32 µg/mL (≈ 107 µM)	128 µg/mL (≈ 429 µM)	16 µg/mL (≈ 53.6 µM)	CCCCCCCCCCCCCC(=O)NCCCCN	32 µg/mL (≈ 107 µM)	1020 µg/mL (≈ 3430 µM)	1020 µg/mL (≈ 3430 µM)									1020 µg/mL (≈ 3430 µM)	

Further lines, the compound ahead of its results:

Compound	MIC [1]	MIC [2]	MIC [3]	MIC [4]	MIC [7]	MIC [8]	MIC [10]	MIC [11]	MBC [6]	MBC [9]	MBC [12]	MIC90 [13]	MBC [14]	MBC [15]	MBC [16]	MBC [17]	MBC [18]	MBC [19]	MBC [20]	MBC [23]	also measured
CCCCCCCCCCCC(=O)NCCN	16 µg/mL (≈ 66 µM)	8 µg/mL (≈ 33 µM)	8 µg/mL (≈ 33 µM)	16 µg/mL (≈ 66 µM)	16 µg/mL (≈ 66 µM)	16 µg/mL (≈ 66 µM)	16 µg/mL (≈ 66 µM)	128 µg/mL (≈ 528 µM)	16 µg/mL (≈ 66 µM)	16 µg/mL (≈ 66 µM)	16 µg/mL (≈ 66 µM)	> 1020 µg/mL	1020 µg/mL (≈ 4220 µM)	32 µg/mL (≈ 132 µM)	256 µg/mL (≈ 1060 µM)	128 µg/mL (≈ 528 µM)	256 µg/mL (≈ 1060 µM)	> 1020 µg/mL	16 µg/mL (≈ 66 µM)	16 µg/mL (≈ 66 µM)	MIC50 [13]: 32 µg/mL (≈ 132 µM); MBC [21]: 32 µg/mL (≈ 132 µM); MBC [22]: > 1020 µg/mL; MBC [24]: 256 µg/mL (≈ 1060 µM); MBC [25]: > 1020 µg/mL; MBC [26]: 1020 µg/mL (≈ 4220 µM); MBC [27]: 256 µg/mL (≈ 1060 µM); MBC [28]: 32 µg/mL (≈ 132 µM); MBC [29]: 32 µg/mL (≈ 132 µM); MBC [30]: 1020 µg/mL (≈ 4220 µM); MBC [31]: > 1020 µg/mL; MBC [32]: 32 µg/mL (≈ 132 µM); MBC [33]: 32 µg/mL (≈ 132 µM); MBC [34]: 32 µg/mL (≈ 132 µM); MBC [35]: 1020 µg/mL (≈ 4220 µM)
CCCCCCCC/C=C\CCCCCCCC(=O)NCCCN	2 µg/mL (≈ 5.91 µM)	> 1020 µg/mL	4 µg/mL (≈ 11.8 µM)	1 µg/mL (≈ 2.95 µM)	4 µg/mL (≈ 11.8 µM)	4 µg/mL (≈ 11.8 µM)	4 µg/mL (≈ 11.8 µM)	2 µg/mL (≈ 5.91 µM)	16 µg/mL (≈ 47.3 µM)			512 µg/mL (≈ 1510 µM)	16 µg/mL (≈ 47.3 µM)	8 µg/mL (≈ 23.6 µM)	512 µg/mL (≈ 1510 µM)	4 µg/mL (≈ 11.8 µM)	1020 µg/mL (≈ 3020 µM)	1020 µg/mL (≈ 3020 µM)	16 µg/mL (≈ 47.3 µM)	128 µg/mL (≈ 378 µM)	MIC50 [13]: 16 µg/mL (≈ 47.3 µM); MBC [21]: 8 µg/mL (≈ 23.6 µM); MBC [22]: 16 µg/mL (≈ 47.3 µM); MBC [24]: 16 µg/mL (≈ 47.3 µM); MBC [25]: 512 µg/mL (≈ 1510 µM); MBC [26]: 16 µg/mL (≈ 47.3 µM); MBC [27]: 16 µg/mL (≈ 47.3 µM); MBC [28]: 16 µg/mL (≈ 47.3 µM); MBC [29]: 64 µg/mL (≈ 189 µM); MBC [30]: 8 µg/mL (≈ 23.6 µM); Activity [36]: Active; MBC [31]: 16 µg/mL (≈ 47.3 µM); MBC [32]: 64 µg/mL (≈ 189 µM); MBC [33]: 16 µg/mL (≈ 47.3 µM); MBC [34]: 16 µg/mL (≈ 47.3 µM); MBC [35]: 16 µg/mL (≈ 47.3 µM)
CCC(C)n1ncn(-c2ccc(N3CCN(c4ccc(OCC5COC(Cn6cncn6)(c6ccc(Cl)cc6Cl)O5)cc4)CC3)cc2)c1=O (stereo unspecified) [ITRACONAZOLE]					> 512 µg/mL	256 µg/mL (≈ 363 µM)	> 512 µg/mL	0.5 µg/mL (≈ 0.709 µM)													
O=C(N[C@H](CO)[C@H](O)c1ccc([N+](=O)[O-])cc1)C(Cl)Cl [CHLORAMPHENICOL]		32 µg/mL (≈ 99 µM)		32 µg/mL (≈ 99 µM)					128 µg/mL (≈ 396 µM)			32 µg/mL (≈ 99 µM)	32 µg/mL (≈ 99 µM)	8 µg/mL (≈ 24.8 µM)	8 µg/mL (≈ 24.8 µM)	128 µg/mL (≈ 396 µM)	4 µg/mL (≈ 12.4 µM)	64 µg/mL (≈ 198 µM)	64 µg/mL (≈ 198 µM)		MBC [21]: 64 µg/mL (≈ 198 µM); MBC [22]: 64 µg/mL (≈ 198 µM); Activity [5]: Active; MBC [24]: 4 µg/mL (≈ 12.4 µM); MBC [25]: 8 µg/mL (≈ 24.8 µM); MBC [26]: 64 µg/mL (≈ 198 µM); MBC [27]: 4 µg/mL (≈ 12.4 µM); Activity [38]: Active; MBC [28]: 4 µg/mL (≈ 12.4 µM); MBC [29]: 8 µg/mL (≈ 24.8 µM); MBC [30]: 32 µg/mL (≈ 99 µM); Activity [36]: Active; MBC [31]: 64 µg/mL (≈ 198 µM); MBC [32]: 64 µg/mL (≈ 198 µM); MBC [33]: 64 µg/mL (≈ 198 µM); MBC [34]: 8 µg/mL (≈ 24.8 µM); MBC [35]: 4 µg/mL (≈ 12.4 µM)
